Experimental data: patent EP0043971A1, “Indanoneoxyalkylpiperazine derivatives, the preparation thereof and pharmaceutical compositions containing the same” (priority 1980, dated 1982)
Read-outs that look alike come from different tables or passages of the source.

Experiments:
weiblichen NMRI-Mäusen = test: Sedative effect: inhibition of orientation hypermotility induced by a new environment, photoelectric measurement; type: in vivo, Maus; conditions: for ED50: Mus musculus, po, 0.5 h, Maus, read-out: Motilitätshemmung ED 50 %; for Wirkungsstärke (sedativ) der Referenzsubstanz / Motilitätshemmung um 50 %: -mal größere Dosen als Referenzsubstanz: relative to Chlorpromazin; for Wirkungsstärke (sedativ) der Referenzsubstanz: mouse p.o.; for sedative Wirkung: result in words
Excerpt: (§1) Sie eignen sich mit bevorzugter sedativ/transquilisierender und anti-monaminerger Wirkung als Sedativa/Hypnotika oder als Tranquilizer bzw. Neuroleptica. Andere erfindungsgemäße Verbindungen eignen sich wegen ihrer relativ selektiven blutdrucksenkenden Wirksamkeit zur Behandlung der Hypertonie und zur Entlastung des Herzen bei Herzinsuffizienz. ) Zum Nachweis der pharmakologischen Wirkungen wurden folgende Methoden verwendet: • 1. Sedative Wirkung • 4-8 Gruppen von jeweils 3 weiblichen NMRI-Mäusen erhalten die Substanz oral appliziert. Die photoelektrische Bestimmung der durch eine neue Umgebung induzierten Orientierungshypermotilität erfolgt 30 min nach der Applikation der Substanzen für eine Dauer von 30 min. • Als ED 50 wird die Dosis bestimmt, welche im Vergleich zu Placebo-behandelten Kontrolltieren eine Abnahme der Orientierungshypermotilität um 50 % bewirkt. • 2. Anti-Methamphetamin-Wirkung • Methamphetamin-HCl (2,5 mg/kg i.v.) ruft an Ratten regelmäßig folgende Symptome hervor: motorische Unruhe, Such- und Schnüffelbewegungen, Fellsträuben sowie Tremor (Janssen et al., Arzeim. Forsch./Drug Res. 13, 205, 1963, RANDRUP et al., Psychopharmacologia 11, 300, 1967). • Die Prüfsubstanzen werden 30 min vor Methamphetamin intraperitoneal verabfolgt. Kriterium für einen Substanzeffekt ist das Ausbleiben der Schnüffelbewegungen innerhalb eines 5-minütigen Beobachtungszeitraums nach Methamphetamin-Injektion. • Als mittlere Hemmdosis (ED 50) wird mittels Probitanalyse die Dosis ermittelt, die das Symptom bei der Hälfte der Tiere verhindert. • 3. Hypotensive Wirkung • Die blutdrucksenkende Wirkung wurde an narkotisierten Ratten (Stamm: Spraque Dawley, Gewicht: 230-280 g) in Urethan-Narkose (1,78 g/kg i.p.) nachgewiesen. Der Blutdruck wurde in der Aorta carotis gemessen. Die Substanzapplikation erfolgte in eine Vena jugularis (wäßrige Lösung, 1 ml/kg). Als ED 20 % wurden aus der linearen Regression zwischen log Dosis (mg/kg) und relativer Blutdrucksenkung (Δ%) die Dosen ermittelt, welche eine 20 %ige Blutdrucksenkung bewirken.

[1] = tested on: narkotisierten Ratten (Stamm: Spraque Dawley); test: Hypotensive effect: blood pressure lowering in urethane-anaesthetised rats; type: in vivo, Ratte; conditions: for ED20: Rattus norvegicus, iv, read-out: Blutdrucksenkung ED 20 %; for Blutdrucksenkung ED 20 % R.W. (Relative Wirksamkeit: Chlorpromazin = 1,00) / Blutdrucksenkung ED 20 % R.W. (Relative Wirksamkeit; Chlorpromazin = 1,00): i.v.; for Q (ED 50 % Motilitätshemmung / ED 20 % Blutdrucksenkung): ratio of mouse p.o. ED 50 % to rat i.v. ED 20 %; for hypotensiv wirksame Dosen, -mal größer als die der Referenzsubstanz: rat i.v.
Excerpt: as §1

[2] = Table 1, Applikation: per. os., measured 30 min after application for 30 min
[3] = Table 1, Ratte, Urethan-Narkose, Applikation: i.v.
[4] = Table 2, Ratte, Urethan-Narkose
[5] = Table 1, Ratte, Urethan-Narkose
[6] = Table 2, Ratte, Urethan-Narkose, Applikation: i.v.

Row | SMILES | ED50 (weiblichen NMRI-Mäusen; [2]) [mg/kg] | sedative Wirkung (weiblichen NMRI-Mäusen) | ED50 (weiblichen NMRI-Mäusen; Table 2, Applikation: per os.) [mg/kg] | Blutdrucksenkung ED 20 % R.W. (Relative Wirksamkeit: Chlorpromazin = 1,00) [1, 4] | Q (ED 50 % Motilitätshemmung / ED 20 % Blutdrucksenkung) ([1]; Table 2) | ED20 [1, 6] [mg/kg] | also measured
1 | COc1cccc(N2CCN(CC(O)COc3cccc4c3CCC4=O)CC2)c1 (racemic) [Beispiel 14, 4-(3-[4-(3-Methoxyphenyl)-1-pipera-zinyl]-2-hydroxy-propoxy)-indanon-1] | 9.44 | sedativ wirken |  |  |  |  | Wirkungsstärke (sedativ) der Referenzsubstanz (weiblichen NMRI-Mäusen): 22%; ED20 [1, 3]: 1 mg/kg
2 | Cc1ccccc1N1CCN(CC(O)COc2cccc3c2CCC3=O)CC1 (racemic) [Beispiel 10, 4-(3-[4-(2-Methylphenyl)-1-pipera-zinyl]-2-hydroxy-propoxy)-indanon-1] |  |  | 46.4 | 0,16 | 294 |  | Motilitätshemmung um 50 %: -mal größere Dosen als Referenzsubstanz (weiblichen NMRI-Mäusen): 20 mal; Wirksamkeit nach den blutdrucksenkenden Dosen (ED 20 %) von Chlorpromazin ([1]; relative to Chlorpromazin): 16%
3 | O=C1CCc2cccc(OCCCN3CCN(c4ccc(F)cc4)CC3)c21 [Beispiel 30, 7-(3-[4-(4-Fluorphenyl)-1-piperazinyl]--propoxy)-indanon-1] | 5.03 | sedativ wirken |  |  |  |  | Blutdrucksenkung ED 20 % R.W. (Relative Wirksamkeit; Chlorpromazin = 1,00) [1, 5]: 0,16; hypotensiv wirksame Dosen, -mal größer als die der Referenzsubstanz ([1]; relative to Chlorpromazin): 6 mal
4 | O=C1CCc2c(OCC(O)CN3CCN(c4ccc(F)cc4)CC3)cccc21 (racemic) [Beispiel 1, 4-(3-[4-(4-Fluorphenyl)-1-piperazinyl]-2-hydroxy-propoxy)--indanon-1] | 3.05 | sedativ wirken |  |  |  |  | Wirkungsstärke (sedativ) der Referenzsubstanz (weiblichen NMRI-Mäusen): 69%; ED20 [1, 3]: 1.07 mg/kg
5 | COc1ccc(N2CCN(CC(O)COc3ccc4c(c3)CCC4=O)CC2)cc1 (racemic) [Beispiel 19, 5-(3-[4-(4-Methoxyphenyl)-1-piperazi-nyl]-2-hydroxy-propoxy)-indanon-1] | 5.76 | sedativ wirken |  |  |  |  | ED20 [1, 3]: 7.91 mg/kg; hypotensiv wirksame Dosen, -mal größer als die der Referenzsubstanz ([1]; relative to Chlorpromazin): 300 mal
6 | COc1ccccc1N1CCN(CC(O)COc2cccc3c2C(=O)CC3)CC1 (racemic) [Beispiel 23, 7-(3-[4-(2-Methoxyphenyl)-1-piperazi-nyl]-2-hydroxy-propoxy)-indanon-1] |  |  | 19 | 0,46 | 333 | 0.057 | 
7 | O=C1CCc2c(OCCCN3CCN(c4ccc(F)cc4)CC3)cccc21 [Beispiel 4, 4-(3-[4-(4-Fluorphenyl)-1-piperazinyl]-propoxy)-indan-1-on] | 3.56 | sedativ wirken |  |  |  |  | Blutdrucksenkung ED 20 % R.W. (Relative Wirksamkeit; Chlorpromazin = 1,00) [1, 5]: 0,14
8 | COc1ccccc1N1CCN(CC(O)COc2ccc3c(c2)CCC3=O)CC1 (racemic) [Beispiel 17] |  |  | 13.2 | 0,36 | 183 | 0.0722 | Quotienten aus den effektiven Dosen für die Motilitätshemmung (ED 50 %) und Blutdrucksenkung (ED 20 %) [1]: 183
9 | CN(C)CCCN1c2ccccc2Sc2ccc(Cl)cc21 [Chlorpromazin, reference compound] | 2.11 |  |  | 1,00 | 81 |  | Quotienten aus den effektiven Dosen für die Motilitätshemmung (ED 50 %) und Blutdrucksenkung (ED 20 %) [1]: 81; ED20 [1]: 0.026 mg/kg; Blutdrucksenkung ED 20 % R.W. (Relative Wirksamkeit; Chlorpromazin = 1,00) [1, 5]: 1,00; Blutdrucksenkung ED 20 % [1, 6]: 0,0260 mg/kg
10 | COc1ccccc1N1CCN(CC(O)COc2cccc3c2CCC3=O)CC1 (racemic) [Beispiel 13, 4-(3-[4-(2-Methoxyphenyl)-1-pipera-zinyl]-2-hydroxy-propoxy)-indanon-1] |  |  | 11 | 0,89 | 376 | 0.0293 | Motilitätshemmung um 50 %: -mal größere Dosen als Referenzsubstanz (weiblichen NMRI-Mäusen): 5 mal; Wirksamkeit nach den blutdrucksenkenden Dosen (ED 20 %) von Chlorpromazin ([1]; relative to Chlorpromazin): 89%
11 | O=C1CCc2cccc(OCC(O)CN3CCN(c4ccccc4Cl)CC3)c21 (racemic) [Beispiel 20, 7-(3-[4-(2-Chlorphenyl)-1-piperazinyl]--2-hydroxy-propoxy)-indanon-1] |  |  | 42.4 | 2,50 | 4077 | 0.0104 | Motilitätshemmung um 50 %: -mal größere Dosen als Referenzsubstanz (weiblichen NMRI-Mäusen): 20 mal; Quotienten aus den effektiven Dosen für die Motilitätshemmung (ED 50 %) und Blutdrucksenkung (ED 20 %) [1]: 4 077; stärker wirksam als Chlorpromazin (Blutdrucksenkung ED 20 %) ([1]; relative to Chlorpromazin): 2,5 mal
